According to patent US5599553A, “Local drug delivery film for periodontal treatment” (Dong Kook Pharmaceutical Co., Ltd., priority 1992, dated 1997):

Assays:
[1] = system: 139 kinds of tested bacilli; experiment: Susceptibility test of antibiotics to bacilli in mouth; format: cell-based
Description: (§1) At first, the minimal inhibitory concentration (hereinafter it is abbreviated to MIC) of minocycline for bacilli, especially Antinobacillus actinomycetemcomitans as main bacillus and the minimum period to optimum treatment effect with MIC were examined. […] Also, it was reported by Goodson et al. that the concentration more than MIC has to be sustained to inhibit growth of periodontal bacillus for at least 48 hours, especially at least 10 days for optimum treatment effect. Accordingly, local drug delivery should sustain the concentration of minocyclne in the periodontal pocket at least 4 μg/ml for at least 48 hours, and especially more than 10 days to optimize treatment effect. So the present local drug delivery was examined to learn if it coincided with the standard or not.

[2] = system: Actinobacillus actinomycetemcomitans; experiment: Susceptibility test of antibiotics / MIC of minocycline; format: cell-based
Description: as §1

[3] = system: human gingival fibroblast; experiment: Rapid colorimetric assay for cellular growth survival (MTT)
Description: The floating solution obtained was devided into microtest plate well (obtained from Nuck, Denmark) as much as 2.5×10cell/well using the standard blood corpuscle calculation method so that MEM containing 10% fatal calf serum, peniciline 10 units/ml, streptomycine 100 μg/ml and fungizone 0.2 μl/ml became containing 2500, 5000, 10000, 15000, 20000, and 30000 cell per 200 ml and the resulting solution was incubated. Culture solution was changed next day. After 2 days, culture solution was removed and washed with HBSS. […] This was incubated in incubator at 37° C. […] As control group, MEM culture solution well was used every test. All test results were calculated as percentage unit to control group.

[4] = system: human gingival fibroblast; experiment: Cytotoxic inhibition activity, [3H]-thymidine incorporation
Description: Human gingival fibroblast was cultivated and divided into 24 multi-well dish as much as 1×10 ^5 cell/well each. Medium was chant ed next day. After 3 days, medium was removed and washed with Hank's balanced salt solution (hereinafter it is abbreviated to HBSS). […] After 2 hours, said solutions were stood at 4° C. for 10 min using ice cold 5% Trichloroacetic acid (TCA) 3 ml. After washing 3 or 4 times with TCA, removed TCA, and dissolved gingival fibroblast by 0.5N-NaOH 1 ml at 37° C. for 30 min. 50 μl of said solution was taken, added 4 ml of cocktail solution to said solution and count per minute was measured by liquid scintillation counter.

`CN(C)c1ccc(O)c2c1C[C@H]1C[C@H]3[C@H](N(C)C)C(=O)C(C(N)=O)=C(O)[C@@]3(O)C(=O)C1=C2O` [minocycline] was tested. Which “tested bacilli that showed susceptibility” value [1] did it give?
The value was 98%.

What about the “break point of minocycline concentration to periodontal treatment” value [2] of the same compound?
The value was 2 to 4 µg/mL.

What about the MIC ([2]; Aggregatibacter actinomycetemcomitans, read-out: concentration of minocycline at which susceptibility is shown) of the same compound?
Its MIC is 2 to 4 µg/mL.

And the “difference in cell activity according to minocycline concentration” value [3]?
Its value is “difference in cell activity according to concentration of minocycline was not observed”.

What about the “growth of gingival fibroblast” value ([4]; 160 μg/ml to 2560 μg/ml) of the same compound?
Its value is “growth of gingival fibroblast was not inhibited”.

And the “growth inhibition of gingival fibroblast” value ([4]; observation for 7 days)?
Its value is “statistical singnificance about growth inhibitory of gingival fibroblast was not observed”.
